Assays:
guinea pigs = assay: Inhibition of implantation in guinea pigs by estrogen antagonists; type: in vivo, guinea pig
[1] = system: normal guinea pigs with a normal cycle; assay: Test 3: receptivity inhibition in guinea pigs treated over 2 cycles, mating in the second cycle; type: in vivo, guinea pig; conditions: for effectiveness of the single dose given separately: 0.5 mg daily s.c.; for effectiveness of the single dose given separately / effect of lower doses by themselves: alone; for effect of lower doses by themselves: <1.0 mg daily s.c.
Method: The tests were carried out on normal guinea pigs with a normal cycle over a treatment period of 2 cycles. Mating took place in the second cycle.
Doses of Onapristone: 0.1, 0.25, 0.5, 1.0 and 3.0 mg daily s.c.

| Compound | implantation in guinea pigs (guinea pigs) | effectiveness of the single dose given separately [1] | effect of lower doses by themselves [1] | normal pregnancies ([1]; tamoxifen alone, 10.0 mg daily s.c., 2 cycles) [%] | inhibition of receptivity ([1]; tamoxifen alone, dosage range 0.1-10.0 mg/animal daily s.c.) | pregnancies after treatment ([1]; onapristone alone, high doses, daily s.c.) |
| --- | --- | --- | --- | --- | --- | --- |
| C[C@]12CC[C@@H]3c4ccc(O)cc4C[C@@H](CCCCCCCCC[S+]([O-])CCCC(F)(F)C(F)(F)F)[C@H]3[C@@H]1CC[C@@H]2O (stereo partly drawn) [ICI 182780, 7α-[9-[(4,4,5,5,5-pentafluorpentyl)sulfinyl]nonyl]estra-1,3,5(10)-trien-3,17β-diol] | inhibit implantation | – | – | – | – | – |
| CC/C(=C(\c1ccccc1)c1ccc(OCCN(C)C)cc1)c1ccccc1 [tamoxifen, (Z)-N,N-dimethyl-2-[4-(1,2-diphenyl-1-butenyl)phenoxy]ethanamine] | inhibit implantation | only marginally effective | no effect or a marginal effect | 30 | no complete inhibition of receptivity could be achieved | – |
| CN(C)c1ccc([C@H]2C[C@]3(C)[C@@H](CC[C@]3(O)CCCO)[C@@H]3CCC4=CC(=O)CCC4=C32)cc1 [onapristone, 11β-[4-(dimethylamino)phenyl]-17α-hydroxy-17β-(3-hydroxypropyl)-13α-estra-4,9-dien-3one] | – | only marginally effective | no effect or a marginal effect | – | – | occasional pregnancies occurred |
